# Test results reported in paper doi:10.1101/2024.12.16.628703v1 (bioRxiv, 2024).
# Marks after values point to notes of the source that are not given here.
# Legend:
# [1] = system: E. huxleyi; assay: CPP translocation by flow cytometry; format: cell-based, Emiliania huxleyi; conditions: for FITC-positive cells / FITC-positive cells achieved over the range tested: titer experiment, flow cytometry, average of 2 experiments; for FITC-positive cells achieved over the range tested: 20 to 320 µM CPP
# [2] = system: I. galbana; assay: CPP translocation by flow cytometry; format: cell-based, Isochrysis galbana; conditions: for translocation (FITC-positive cells) / percentage of cells penetrated (FITC-positive): DOE, trypsin wash; for translocation (FITC-positive cells): FITC-Ahx-CPP 2 µM; for translocation (FITC-positive cells) / percentage of cells penetrated (FITC-positive) / FITC-positive cells achieved over the range tested / FITC-positive cells: flow cytometry; for percentage of cells penetrated (FITC-positive): FITC-Ahx-CPP 10 µM; for FITC-positive cells achieved over the range tested / FITC-positive cells: titer experiment, single experiment; for FITC-positive cells achieved over the range tested: 20 to 320 µM CPP
# [3] = system: G. oceanica; assay: CPP translocation by flow cytometry; format: cell-based, Gephyrocapsa oceanica; conditions: for increase in median fluorescence per increase in concentration of 1 µM: regression of titer data, FITC-positive population; for increase in median fluorescence per increase in concentration of 1 µM / regression equation, Median Fluorescence versus CPP concentration: separate experiment; for regression equation, Median Fluorescence versus CPP concentration: titer data 20-320 µM, flow cytometry ex 488 / em 525 nm
# [4] = system: I. galbana; assay: Viability / cell proliferation after CPP transfection; format: cell-based, Isochrysis galbana; conditions: growth curve 14 days
# [5] = system: animal cells; conditions: ref [7],[8],[23]; cited from earlier work
# [6] = system: algae; conditions: ref [7],[8],[23]; cited from earlier work
# [7] = titer data 20-320 µM, separate experiment, flow cytometry ex 488 / em 525 nm
sequence,measurement,setting,value
"GRKKRRQRRRPPQ [TAT, transactivating transcriptional activator]","regression equation, Median Fluorescence versus CPP concentration",[1]; [7],15145 + 35.47 * TAT concentration
same,FITC-positive cells,[1]; 20 µM CPP,less than 20%
same,FITC-positive cells,[1]; 160 µM CPP,over 40%
same,FITC-positive cells,[1]; 320 µM CPP,over 60%
same,FITC-positive cells achieved over the range tested,[1],< 80%
same,translocation (FITC-positive cells),[2],do not translocate
same,percentage of cells penetrated (FITC-positive),[2],do not translocate
same,"regression equation, Median Fluorescence versus CPP concentration",[2]; [7],16534 + 11.73 * TAT concentration
same,FITC-positive cells achieved over the range tested,[2],< 20%
same,increase in median fluorescence per increase in concentration of 1 µM,[3],53 RFU
same,"regression equation, Median Fluorescence versus CPP concentration",[3],10953 + 52.48 * TAT concentration
"LLIILRRRIRKQAHAHSK [pVEC, murine vascular endothelial cadherin]",effect on median fluorescence with rising concentration,[1]; titer experiment 20-320 µM,reaches a plateau from 160 to 320 µM
same,"optimal concentration for translocation, irrespective of viability",[1]; titer experiment 20-320 µM,160 µM
same,FITC-positive cells,[1]; 20 µM CPP,> 80%
same,FITC-positive cells,[1]; 160 µM CPP,more than 90%
same,FITC-positive cells,[1]; 320 µM CPP,over 95%
same,FITC-positive cells achieved over the range tested,[1],more than 80%
same,percentage of cells penetrated (FITC-positive),[2],39%
same,"optimal concentration for translocation, irrespective of viability",[2]; titer experiment 20-320 µM,80 µM
same,FITC-positive cells,[2]; 20 µM CPP,less than 20%
same,FITC-positive cells,[2]; 80 µM CPP,over 90%
same,FITC-positive cells,[2]; 160 µM CPP,approximately 85%
same,FITC-positive cells achieved over the range tested,[2],80%
same,proliferation of cells sorted for high FITC fluorescence,"[4]; 160 and 320 µM pVEC, sorted by FACS",proliferation of viable cells
same,viability after CPP treatment,"[4]; pVEC at 20 µM, sorted cells",apparent decrease in viability
same,increase in median fluorescence per increase in concentration of 1 µM,[3],184 RFU
same,"regression equation, Median Fluorescence versus CPP concentration",[3],16133 + 184.1 * pVEC concentration
same,"optimal concentration for translocation, irrespective of viability",[3]; titer experiment 20-320 µM,160 µM
same,percent-positive achieved over the range tested,"[3]; titer experiment, 20 to 320 µM CPP, flow cytometry, average of 2 experiments",more than 80%
"RQIKIWFQNRRMKWKK [pAntp, antennapedia homeodomain]",cytotoxicity at concentrations as low as,[5],40 µM
same,translocation (FITC-positive cells),[2],do not translocate
same,cytotoxicity at concentrations as low as,[6],10 µM
